# Assay results published in patent publication US6521653B2 (priority 1995, dated 2003).
# Tests used:
# Chaetomium globosum = test: Material protection test (MIC on malt extract agar); format: cell-based; conditions: 336 h, two weeks at 28° C., 60 to 70% relative humidity, read-out: Minimal inhibitory concentration (MIC value) Chaetomium globosum
# Experimental: (§1) active compounds of the invention are added at concentrations of 0.1 mg/l to 5000 mg/l to an agar prepared with malt extract. After the agar has solidified, it is infected with pure cultures of Penicillium brevicaule, Chaetomium globosum and Aspergillus niger. After storage for two weeks at 28° C. and 60 to 70% relative humidity, the minimal inhibitory concentration (MIC value) is determined. The MIC value characterizes the lowest concentration of active compound at which there is no growth of the microbial species used.
# Aspergillus niger = test: as above; format: cell-based; conditions: 336 h, two weeks at 28° C., 60 to 70% relative humidity, read-out: Minimal inhibitory concentration (MIC value) Aspergillus niger
# Experimental: as §1
# Penicillium brevicaule = test: as above; format: cell-based; conditions: 336 h, two weeks at 28° C., 60 to 70% relative humidity, read-out: Minimal inhibitory concentration (MIC value) Penicillium brevicaule
# Experimental: as §1
# Phytophthora infestans = test: whole plant or invertebrate; format: in vivo; conditions: for pest or weed control at 50 ppm: Phytophthora infestans, in Solanum lycopersicum, 72 h, read-out: Efficiency in %, based on the untreated control at an active compound concentration of 50 ppm; for Efficiency in %, based on the untreated control at an active compound concentration of 100 ppm: tomato, protective spray, evaluation 3 days after inoculation
# Plasmopara viticola = test: Plasmopara test (grapevines)/protective; format: in vivo; conditions: protective spray, evaluation 6 days after inoculation
# Experimental: Plasmopara Test (Grapevines)/Protective
# Solvent: 4.7 parts by weight of acetone
# Emulsifier: 0.3 parts by weight of alkylaryl polyglycol ether
# To obtain an expedient preparation of active compound, 1 part by weight of active compound is mixed with the amounts of solvent and emulsifier cited and the concentrate is diluted with water to the desired concentration.
# To test for protective activity, young plants are sprayed with the active compound preparation until dew moist. After the sprayed coating has dried on, the plants are inoculated with an aqueous spore suspension of Plasmopara viticola and then remain for 1 day in a moist chamber at 20 to 22° C. and 100% relative humidity. The plants are then set up for 5 days in a greenhouse at 21° C. and approximately 90% relative humidity. The plants are then moistened and placed in a moist chamber for 1 day.
# The evaluation is performed 6 days after the inoculation. In the evaluation, 0% denotes an efficiency corresponding to that of the untreated control, while an efficiency of 100% denotes that no contamination is observed.
compound,measurement,setting,value
Cc1noc(C)c1C(=O)n1nnc2cc3c(cc21)OC(F)(F)C(F)(F)O3,MIC,Chaetomium globosum,100 µg/mL
same,MIC,Aspergillus niger,400 µg/mL
same,MIC,Penicillium brevicaule,200 µg/mL
Cc1noc(C)c1S(=O)(=O)n1nnc2ccccc21,pest or weed control at 50 ppm,Phytophthora infestans,97%
Cc1oncc1S(=O)(=O)n1nnc2c(Br)cc(C(F)(F)F)cc21,pest or weed control at 50 ppm,Phytophthora infestans,98%
Cc1onc(N)c1S(=O)(=O)n1nnc2cc3c(cc21)OC(F)(F)O3,pest or weed control at 50 ppm,Phytophthora infestans,97%
Cc1ccc2c(c1)nnn2S(=O)(=O)c1c(C)noc1C,pest or weed control at 50 ppm,Phytophthora infestans,97%
Cc1noc(C)c1S(=O)(=O)n1nnc2cc([N+](=O)[O-])ccc21,pest or weed control at 50 ppm,Phytophthora infestans,100%
Cc1noc(C)c1S(=O)(=O)n1nnc2cc(Cl)ccc21,pest or weed control at 50 ppm,Phytophthora infestans,100%
Cc1onc(N)c1S(=O)(=O)n1nnc2cc(Cl)ccc21,pest or weed control at 50 ppm,Phytophthora infestans,97%
Cc1oncc1S(=O)(=O)n1nnc2cc3c(cc21)OC(F)(F)C(F)(F)O3 [drawing 93],MIC,Chaetomium globosum,100 µg/mL
same,MIC,Aspergillus niger,200 µg/mL
same,MIC,Penicillium brevicaule,200 µg/mL
Cc1noc(C)c1S(=O)(=O)n1nnc2cc3c(cc21)OC(F)(F)C(F)(F)O3 [drawing 95],"Efficiency in %, based on the untreated control at an active compound concentration of 100 ppm",Phytophthora infestans,94%
Cc1noc(C)c1S(=O)(=O)n1nnc2cc3c(cc21)OC(F)(F)O3 [drawing 96],"Efficiency in %, based on the untreated control at an active compound concentration of 100 ppm",Phytophthora infestans,94%
Cc1noc(C)c1S(=O)(=O)n1nnc2c(Br)cc(C(F)(F)F)cc21 [drawing 97],"Efficiency in %, based on the untreated control at an active compound concentration of 100 ppm",Phytophthora infestans,95%
Cc1oncc1S(=O)(=O)n1nnc2cc3c(cc21)OC(F)(F)C(F)(F)O3 [drawing 98],"Efficiency in %, based on the untreated control at an active compound concentration of 100 ppm",Phytophthora infestans,94%
Cc1oncc1S(=O)(=O)n1nnc2cc3c(cc21)OC(F)(F)O3 [drawing 99],"Efficiency in %, based on the untreated control at an active compound concentration of 100 ppm",Phytophthora infestans,99%
Cc1noc(C)c1S(=O)(=O)n1nnc2cc3c(cc21)OC(F)(F)C(F)(F)O3 [drawing 100],pest or weed control at 50 ppm,Phytophthora infestans,95%
Cc1noc(C)c1S(=O)(=O)n1nnc2cc3c(cc21)OC(F)(F)O3 [drawing 101],pest or weed control at 50 ppm,Phytophthora infestans,99%
Cc1noc(C)c1S(=O)(=O)n1nnc2c(Br)cc(C(F)(F)F)cc21 [drawing 102],pest or weed control at 50 ppm,Phytophthora infestans,89%
Cc1oncc1S(=O)(=O)n1nnc2cc3c(cc21)OC(F)(F)O3 [drawing 103],pest or weed control at 50 ppm,Phytophthora infestans,100%
Cc1noc(C)c1S(=O)(=O)n1nnc2cc3c(cc21)OC(F)(F)C(F)(F)O3 [drawing 111],"Efficiency in %, based on the untreated control at an active compound concentration of 100 ppm",Plasmopara viticola,100%
Cc1noc(C)c1S(=O)(=O)n1nnc2cc3c(cc21)OC(F)(F)O3 [drawing 112],"Efficiency in %, based on the untreated control at an active compound concentration of 100 ppm",Plasmopara viticola,100%
Cc1oncc1S(=O)(=O)n1nnc2cc3c(cc21)OC(F)(F)C(F)(F)O3 [drawing 113],"Efficiency in %, based on the untreated control at an active compound concentration of 100 ppm",Plasmopara viticola,100%
Cc1oncc1S(=O)(=O)n1nnc2cc3c(cc21)OC(F)(F)O3 [drawing 114],"Efficiency in %, based on the untreated control at an active compound concentration of 100 ppm",Plasmopara viticola,100%
